Results from patent US11548935B2 (NeoMatrix Therapeutics Inc., priority 2016, dated 2023).
Entries after “also recorded” stand apart in the source; their conditions may differ.

Tests used:
PDGF-BB = PDGF-BB (Homo sapiens, UniProt P01127); assay: Surface plasmon resonance (Biacore) binding to growth factor; conditions: plasmon surface resonance (Biacore T200)
Experimental: (§1) To study the binding activities of these peptides, real time interactions of P12, P46, and cNP8 with growth factors were determined by plasmon surface resonance (Biacore T200).
In the Biacore2000 system, binding constants from kinetic data are determined by passing varying concentrations of FN peptides (analytes) over chip surfaces which are coupled with PDGF-BB (ligand), respectively. All kinetic experiments are carried out at 20° C. at a flow rate of 20 μl/min. For mass transport experiments, each analyte is injected at a fixed concentration and run at flow rates ranging from 5 to 75 μl/min. All analytes are injected over PDGF-BB ligand surfaces as well as over a control surface for 120 s, followed by 300 s of dissociation in running buffer. Regeneration of the sensor chip for subsequent injections is accomplished by pulse of 0.1% SDS. Mass transport experiments have detected little difference in response at different flow rates thus validating data from kinetic experiments. Sensorgrams are prepared and globally fitted using nonlinear least-squares analysis and numerical integration of the differential rate equations with the Biacore Bioevaluation software. […] Each data set, which consists of a series of sensorgrams from injections of different concentration of analyte over the same surface, is analyzed using kinetic models from Bioevaluation software.

[1] = system: Adult human dermal fibroblasts CF31 cells; assay: Fibroblast metabolism (XTT) assay with 1 nM PDGF-BB, 6 days; format: cell-based; conditions: for bioactivity as determined by fibroblast metabolism assay: FIG. 2, XTT OD 450 nm; for promotion of survival of adult human dermal fibroblasts in the presence of PDGF-BB: FIG. 4, XTT
Experimental: Adult human dermal fibroblasts CF31 cells at 1000 cells/well were seeded in a collagen-coated 96-well plate in DMEM overnight, then 1 nM PDGF-BB with peptides at indicated doses was added and cells were incubated at 37° C. for 6 days. Then cell metabolism was measured by XTT assay by reading OD at 450 nm. Each point represents the mean of 6 replicates with a typical SD=5-10% around the mean (not shown for graft clarity).
Adult human dermal fibroblasts, CF31, at 1000 cells/well were incubated at 37° C. in a collagen-coated 96-well plate with DMEM, 1 nM PDGF-BB with peptides at indicated doses for 6 days and then cell metabolism was measured by XTT assay, reading OD at 450 nm. Data represent the mean of 6 replicates.
P12, P46, cNP7 and cNP8 were compared for their ability to promote the survival of adult human dermal fibroblasts in the presence of PDGF-BB. Adult human dermal fibroblasts at 1000 cells/well were incubated in a collagen-coated 96-well plate with DMEM, 1 nM PDGF-BB with peptides at indicated doses for 6 days and then cell metabolism was measured by XTT assay. Data represent the mean of 6 replicates (FIG. 4).

[2] = target: insulin-like growth factor-1 (IGF-1) (Homo sapiens, UniProt P05019); assay: Surface plasmon resonance (Biacore) binding to growth factor; conditions: plasmon surface resonance (Biacore T200)
Sequence of insulin-like growth factor-1 (IGF-1) (P05019 49-118, species assumed): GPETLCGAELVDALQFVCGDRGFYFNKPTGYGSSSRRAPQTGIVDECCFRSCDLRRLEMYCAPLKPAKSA
Experimental: as §1

[3] = target: Transforming Growth Factor-Beta1 (TGF-β1) (Homo sapiens, UniProt P01137); assay: as above; conditions: plasmon surface resonance (Biacore T200)
Sequence of Transforming Growth Factor-Beta1 (TGF-β1) (P01137 279-390 limits assumed, species assumed): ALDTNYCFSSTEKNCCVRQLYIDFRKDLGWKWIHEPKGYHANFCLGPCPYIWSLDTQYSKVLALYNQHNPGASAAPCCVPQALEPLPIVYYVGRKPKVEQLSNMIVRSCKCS
Experimental: as §1

[4] = target: epidermal growth factor (EGF) (Homo sapiens, UniProt P01133); assay: as above; conditions: plasmon surface resonance (Biacore T200)
Sequence of epidermal growth factor (EGF) (P01133 971-1023 limits assumed, species assumed): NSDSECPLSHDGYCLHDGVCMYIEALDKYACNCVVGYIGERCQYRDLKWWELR
Experimental: as §1

[5] = target: T1, human neutrophil elastase (Homo sapiens, UniProt P08246)
T1 sequence (P08246 30-267): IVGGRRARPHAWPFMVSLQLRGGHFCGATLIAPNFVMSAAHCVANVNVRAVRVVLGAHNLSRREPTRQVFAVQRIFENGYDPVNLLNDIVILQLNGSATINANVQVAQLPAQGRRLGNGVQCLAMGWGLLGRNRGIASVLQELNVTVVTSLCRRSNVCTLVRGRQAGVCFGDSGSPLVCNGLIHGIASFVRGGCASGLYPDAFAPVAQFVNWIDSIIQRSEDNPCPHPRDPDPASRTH
Experimental: P46 was incubated with purified human neutrophil elastase at 1:100 enzyme:substrate molar ratio at 37° C. for 4 h (3A) or 24 h (3B). Peptides stability was determined by MALDI-TOF analysis.
Peptides' stability was determined by MALDI-TOF analysis.
The reaction was stopped with formic acid and the reaction mixture was analyzed by mass spectroscopy.
To determine the sensitivity of P46 to elastase digestion, P46 was synthesized and digested with elastase. […] P46 was incubated with purified human neutrophil elastase at 1:100 enzyme:substrate molar ratio at 37° C. for 4 h (FIG. 3A) or 24 h (FIG. 3B). The elastase-generated smaller peptides were determined by MALDI-TOF analysis.
Peptide's stability was determined by MALDI-TOF analysis.

[6] = system: human neutrophil elastase; assay: purified human neutrophil elastase; conditions: up to 24 h
[7] = system: adult human dermal fibroblast; assay: Screening experiment of adult human dermal fibroblast survival in medium without serum with 1 nM PDGF-BB; format: cell-based; conditions: 6 days of incubation

Sequence of PDGF-BB (P01127 82-190 limits assumed): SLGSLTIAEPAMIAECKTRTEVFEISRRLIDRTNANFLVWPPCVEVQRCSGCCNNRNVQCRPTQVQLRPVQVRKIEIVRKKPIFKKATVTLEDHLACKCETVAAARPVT

## HISKYILRWRPKNSV (polypeptide according to formula I) [P46]
PDGF-BB
  binding to PDGF-BB: bind
[1]
  bioactivity as determined by fibroblast metabolism assay: much higher bioactivity than that of P12
  promotion of survival of adult human dermal fibroblasts in the presence of PDGF-BB: promoted the survival of adult human dermal fibroblasts
[2]
  binding to IGF-1: did not bind
[3]
  binding to TGF-β1: bind
[4]
  binding to EGF: did not bind
[5]
  sensitivity to elastase digestion: retained some sensitivity to elastase digestion

## cyclo(HIGKYGLRWRPKGSV) (SMILES CC[C@H](C)[C@@H]1NC(=O)[C@H](Cc2c[nH]cn2)NC(=O)[C@H](C(C)C)NC(=O)[C@H](CO)NC(=O)CNC(=O)[C@H](CCCCN)NC(=O)[C@@H]2CCCN2C(=O)[C@H](CCCNC(=N)N)NC(=O)[C@H](Cc2c[nH]c3ccccc23)NC(=O)[C@H](CCCNC(=N)N)NC(=O)[C@H](CC(C)C)NC(=O)CNC(=O)[C@H](Cc2ccc(O)cc2)NC(=O)[C@H](CCCCN)NC(=O)CNC1=O)
[6]; 37° C.
  not cleaved: A large majority of intact peptide was retained at 24 h

## HIGKYGLRWRPKNSV [cNP7, cyclic form of engineered peptide NP7]
[1]
  promotion of survival of adult human dermal fibroblasts in the presence of PDGF-BB: promoted the survival of adult human dermal fibroblasts

## PSHISKYILRWRPK
[6]
  fragment found: KYILRWRPKPSHIS; also recorded: RWRPKPSHISKYIL

## PSHISKYILRWRPK [cP12]
[5]
  degradation by neutrophil elastase: remain sensitive to this endopeptidase
  number of elastase-cleavage sites: five

## SKYILRWRPKNSV (P45 peptide) [peptide produced by elastase digestion of FN III1-C]
[1]
  bioactivity as determined by fibroblast metabolism assay: little bioactivity

## HISKYILRWGPKNSV (NP11 peptide) [engineered peptide designed from P46]
[7]
  biological activity on screening experiment of fibroblast survival: minimal biological activity

## HISKYILGWRPKNSV (NP9 peptide) [engineered peptide designed from P46]
[7]
  biological activity on screening experiment of fibroblast survival: minimal biological activity

## HISKYILRGRPKNSV (NP10 peptide) [engineered peptide designed from P46]
[7]
  biological activity on screening experiment of fibroblast survival: minimal biological activity

## HIGKYGLRWRPKGSV (polypeptide according to formula I) [NP8, engineered peptide designed from P46]
[7]
  biological activity on screening experiment of fibroblast survival: best biological activity
